The values that follow come from US10780078B2, “Mu opioid receptor modulators” (THE REGENTS OF THE UNIVERSITY OF CALIFORNIA, priority 2017, dated 2020).

Where two headings read alike, the source gives them in different places.

Experiment [1] deals with δ (DOR) receptor (Homo sapiens (Human), UniProt P41143). Nature of the experiment: Inhibitory constant at δ opioid receptor (DOR). It is filed as binding.
Experiment [2] addresses μ (MOR) receptor (Homo sapiens (Human), UniProt P35372). Description: Inhibitory constant at μ opioid receptor (MOR). It is filed as binding.
In experiment [3] the target is human μOR (Homo sapiens (Human), UniProt P35372). Description: cell-based. The procedure:
Determination of functional activity of selected embodiments was performed using a BRET-based cAMP accumulation assay. […] After 24 hrs of transfection cells were seeded into white half-area 96-well plates at a density of 10000 cells/well and grown for further 24 hrs. On the day of measurement, medium was removed and replaced by Phosphate Buffered Saline (PBS) and cells were serum starved for 1 hr before treatment with ligands. Cells were preincubated with coelenterazine h (Progmega, Mannheim, Germany) for 5 min at a final concentration of 5 μM before adding forskolin (final concentration 10 μM) to start cAMP accumulation. Immediately after adding forskolin, a series of concentrations of test compounds were added to the cells. After incubating the microplates for 15 min at 37° C. BRET, measurement was performed using a Clariostar plate reader (BMG LabTech, Ortenberg, Germany).

In experiment [4] the target is MOR (ProLink tagged MOR-PK1 cotransfected with GRK2 / β-arrestin-2) (Homo sapiens (Human), UniProt P35372). Nature of the experiment: β-arrestin recruitment in the presence of GRK2, PathHunter assay. To be noted: for EC50: MOR activation, β-arrestin recruitment (+GRK2) EC50, HEK-293 cells cotransfected with GRK2; for MOR activation, β-arrestin recruitment (+GRK2) Emax: HEK-293 cells cotransfected with GRK2. It is filed as cell-based. As for the experimental part:
(§1) β-Arrestin recruitment was measured by using the PathHunter enzyme complementation assay (DiscoverX, Birmingham, U.K.) as described in the manufacturer's protocol. […] After 24 h cells were transferred into white clear bottom 384-well plates (5000 cells/well) (Greiner Bio-One) and maintained for further 24 h at 37° C., 5% CO2. Test compounds were incubated with the cells in a range from 0.01 nM to 1 μM dissolved in PBS for 90 min at 37° C. Arrestin recruitment was stopped by addition of detection mix for 60 min at room temperature. Chemiluminescence was determined using a Clariostar plate reader. Data analysis was done by nonlinear regression using the algorithms for log(agonist) vs. response of PRISM 6.0 (GraphPad, San Diego, Calif.). […] For testing the arrestin recruitment in the presence of GRK proteins cells were cotransfected with ProLink tagged MOR-PK1 and GRK2 at equal quantities.

Experiment [5] deals with MOR (ProLink tagged MOR-PK1 / β-arrestin-2) (Homo sapiens (Human), UniProt P35372). Nature of the experiment: β-arrestin recruitment, PathHunter enzyme complementation assay (DiscoverX). To be noted: for Emax: HEK293, read-out: MOR activation, β-arrestin recruitment Emax; for MOR activation, β-arrestin recruitment Emax: HEK-293 cells, normalized to maximum effect of DAMGO (100%). In kind it is cell-based. The procedure:
as §1

Where [6] appears, read: Example 1, read-out: MOR: cAMP BRET: EC50.
Setting [7] is: HEK-293T cells, forskolin 10 μM, mean of three to ten experiments, read-out: MOR activation, cAMP accumulation EC50.
The mark [8] stands for this setting: normalized to maximum effect of DAMGO (100%).

δ (DOR) receptor, sequence (P41143 whole entry, looked up): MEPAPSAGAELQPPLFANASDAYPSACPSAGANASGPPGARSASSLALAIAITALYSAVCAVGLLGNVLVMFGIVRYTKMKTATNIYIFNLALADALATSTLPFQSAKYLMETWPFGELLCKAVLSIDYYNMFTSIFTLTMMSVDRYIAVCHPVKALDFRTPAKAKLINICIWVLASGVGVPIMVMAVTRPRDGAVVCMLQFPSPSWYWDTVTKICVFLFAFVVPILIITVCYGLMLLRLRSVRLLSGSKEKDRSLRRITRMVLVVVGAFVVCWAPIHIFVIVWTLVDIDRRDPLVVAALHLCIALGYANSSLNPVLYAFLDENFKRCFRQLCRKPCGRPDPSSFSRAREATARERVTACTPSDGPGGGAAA

Consider `C[C@@H](Cc1ccsc1)NC(=O)NCC1(N(C)C)Cc2ccccc2C1` [DD 277, (S)-1-((2-(dimethylamino)-2,3-dihydro-1H-inden-2-yl)methyl)-3-(1-(thiophen-3-yl)propan-2-yl)urea], for which the results for the Ki in experiment [1] and in experiment [2] were 8.4 µM and 0.5 µM, respectively.

In the case of `C[C@@H](Cc1ccsc1)NC(=O)NCC1(N(C)C)Cc2ccc(O)cc2C1` (single isomer, unassigned) [DD 297A], the EC50 (as a rule, the concentration giving half of the maximal effect) in experiment [3] (setting [6]) was 0.0018 µM; in experiment [3] (setting [7]) it was 0.0012 µM; in experiment [4] it was 0.042 µM. Also, the Emax (as a rule, the size of the effect at its maximum, as opposed to the concentration needed) is 80% in experiment [3] (Example 1, read-out: MOR: cAMP BRET: Emax); 80% in experiment [3] (HEK-293T, read-out: MOR activation, cAMP accumulation Emax); 13% in experiment [4] (HEK293, read-out: MOR activation, β-arrestin recruitment (+GRK2) Emax, HEK-293 cells cotransfected with GRK2, normalized to maximum effect of DAMGO (100%)); under 3% in experiment [5]. Further, the figures for the Ki in experiment [1] and in experiment [2] were 0.068 µM and 0.0059 µM, respectively.

Regarding `C[C@@H](Cc1ccsc1)NC(=O)NCC1(N(C)C)Cc2ccc(O)cc2C1` (stereo partly drawn) [DD 297A, 1-((2-(dimethylamino)-5-hydroxy-2,3-dihydro-1H-inden-2-yl)methyl)-3-((S)-1-(thiophen-3-yl)propan-2-yl)urea], in experiment [5] (Example 1), the “MOR: Arrestin DiscoverX” value was “no significant activity”.

For `C[C@@H](Cc1ccsc1)NC(=O)NCC1(N(C)C)CCc2ccccc2C1` (single isomer, unassigned) [DD 262 P2], the Ki – broadly, the equilibrium dissociation constant of an inhibitor or competing ligand from its target – in experiment [1] was 7.4 µM; in experiment [2], 1.3 µM.

For `C[C@@H](Cc1ccsc1)NC(=O)NCC1(N(C)C)CCc2ccccc2C1` (single isomer, unassigned) [DD 262 P1], the Ki stood at 14 µM in experiment [1] and 2.6 µM in experiment [2].

Turning to `C[C@@H](Cc1ccsc1)NC(=O)NCC1(N(C)C)Cc2ccc(O)cc2C1` (single isomer, unassigned) [DD 297B], the “MOR activation, cAMP accumulation Emax” value in experiment [3] amounted to 73%. Moreover, the “MOR: cAMP BRET: Emax” value in experiment [3] (Example 1) was 65%. For the same compound, the EC50 in experiment [3] (setting [6]) is 0.0125 µM; in experiment [3] (setting [7]), 0.013 µM; in experiment [4] it was 0.67 µM. Also, the Ki in experiment [1] was 2 µM; in experiment [2], 0.19 µM. Also, in experiment [4] (setting [8]), the “MOR activation, β-arrestin recruitment (+GRK2) Emax” value (“MOR activation … (+GRK2) Emax” below) stood at 7%. Moreover, in experiment [5], the “MOR activation, β-arrestin recruitment Emax” value is given as under 3%.

On to `C[C@@H](Cc1ccsc1)NC(=O)NCC1(N(C)C)CCc2cc(O)ccc2C1` (single isomer, unassigned) [DD 272B], for which the “MOR activation, cAMP accumulation Emax” value in experiment [3] came out at 98%. Moreover, the “MOR: cAMP BRET: Emax” value in experiment [3] (Example 1) is recorded as 50%. In addition, the EC50 in experiment [3] (setting [6]) is 0.0016 µM; in experiment [3] (setting [7]), 0.0015 µM; in experiment [4], 0.45 µM. Moreover, the values for the Ki in experiment [1] and in experiment [2] were 0.84 µM and 0.057 µM, respectively. Also, the “MOR activation … (+GRK2) Emax” value in experiment [4] (setting [8]) is reported as 7%. The Emax in experiment [5] was under 3%.

Turning to `C[C@@H](Cc1ccsc1)NC(=O)NCC1(N(C)C)CCc2cc(O)ccc2C1` (single isomer, unassigned) [DD 272A], the “MOR activation, cAMP accumulation Emax” value in experiment [3] is listed as 75%. The “MOR: cAMP BRET: Emax” value in experiment [3] (Example 1) amounted to 108%. Besides, the EC50 was 0.136 µM in experiment [3] (setting [6]) and 0.024 µM in experiment [3] (setting [7]). Moreover, the Ki in experiment [1] was 1.8 µM; in experiment [2], 0.14 µM. The “MOR activation … (+GRK2) Emax” value in experiment [4] (setting [8]) was under 3%. The “MOR activation, β-arrestin recruitment Emax” value in experiment [5] is under 3%.
